From patent US20100298305A1, “TIZANIDINE FOR THE TREATMENT OF POST-TRAUMATIC STRESS DISORDER AND NIGHTMARES” (The United States Government, as represented by the …, priority 2008, published 2010) come the findings set out here.

The structures appear in SMILES notation. Where two headings read alike, the source gives them in different places.

Data set [1] relates to PTSD. The data set can be described thus: Example 1 case summaries 1-6: tizanidine as adjunctive treatment for PTSD, anxiety, depression, psychosis or impaired cognition. It counts as in vivo, human. The settings on record: for signs or symptoms: Case 3, more than two years, sertraline 250 mg daily, divalproex sodium 2500 mg daily, quetiapine 100 mg twice daily and 400 mg at bedtime, amitriptyline 25 mg at bedtime, tramadol 50 mg as needed. As to the method:
Treatment was begun with sertraline 100 mg per day for anxiety and nortriptyline 25 mg at bedtime for headaches. […] Treatment with tizanidine was started and the dose was increased to 8 mg at bedtime.
Tizanidine was started and titrated up to 4 mg at bedtime along with aripiprazole (15 mg at bedtime) and clonazepam (0.5 mg daily).
These medications included sertraline (250 mg daily), divalproex sodium (2500 mg daily), quetiapine (100 mg twice daily and 400 mg at bedtime), amitriptyline (25 mg at bedtime), and tramadol (50 mg as needed for severe headache). […] A trial of tizanidine was started and the dose was titrated up to 8 mg at bedtime.
Pharmacologic Treatment and Response: While on the psychiatry unit, they were treated with sertraline for PTSD and nortriptyline for headaches and depression. […] They were started on tizanidine 4 mg at bedtime.
After approximately one year, subject agreed to a trial of tizanidine as an addition to sertraline. […] They agreed to increase the dose to 4 mg at bedtime and follow-up in four weeks. […] An atypical antipsychotic medication, aripiprazole, was added to their medications.
Treatment with tizanidine 4 mg at bedtime was added to the existing sertraline.

The test system of data set [2] is PTSD. The data set can be described thus: Example 2 case summaries 7-9: switching from once to twice-daily dosing of tizanidine. Conditions: for improvement on medications: approximately one year, doses close to the maximum recommended dose. As to the method:
They were continued on aripiprazole, quetiapine, sertraline, and trazodone. Treatment with tizanidine was started for the nightmares and poor sleep.
They were switched from tizanidine 8 mg at bedtime to tizanidine 6 mg in the morning and 8 mg at bedtime. […] They continued on the sertraline, divalproex, and trazodone for initial insomnia. The tizanidine was switched to 4 mg in the morning and 4 mg at bedtime.
Subject was started on tizanidine up to 8 mg at bedtime for nightmares. They also were issued a device to assist with memory problems. A rating scale for common cognitive problems was administered by speech pathology prior to issuing them a personal digital assistant as a memory assist device.
They continued to take sertraline and tizanidine. At a psychology evaluation session, subject completed two self-report instruments of PTSD and depressive symptoms to establish a baseline indication of symptom severity. […] Subject was then switched from tizanidine 8 mg at bedtime to 4 mg twice daily.
After approximately one year of being followed in the psychiatry clinic, they became more willing to try medication and agreed to a trial of tizanidine.

In data set [3] the test system is PTSD. The settings on record: Case 10; for ADHD symptoms: earlier medication trials during military service. The text has this:
Given the prior history of ADHD, methylphenidate was cautiously added to the venlafaxine. […] They were referred to a specialty inpatient program for PTSD. During the inpatient program, the antidepressant was switched from venlafaxine to duloxetine.

Where [4] appears, read: Case 1, sertraline 100 mg per day with nortriptyline 25 mg at bedtime, after four weeks.
The mark [5] stands for this setting: Case 4, sertraline with nortriptyline, five days after hospital discharge.
Where [6] appears, read: Case 8, sertraline 150 mg per day, two months later.

As to `CN(C)CCC=C1c2ccccc2CCc2ccccc21` [amitriptyline], the signs or symptoms entry in data set [1] is listed as “None of these medications significantly reduced their signs or symptoms”.

For the compound `O=C1CCc2ccc(OCCCCN3CCN(c4cccc(Cl)c4Cl)CC3)cc2N1` [aripiprazole], in data set [2] (Case 7), the improvement on medications result is “only modest improvement”.

In the case of `CC(NC(C)(C)C)C(=O)c1cccc(Cl)c1` (stereo not shown) [bupropion], the ADHD symptoms entry in data set [3] was “neither of which were effective”.

For the compound `CCCC(CCC)C(=O)O` [divalproex sodium], the signs or symptoms entry in data set [1] is recorded as “None of these medications significantly reduced their signs or symptoms”. Besides, the improvement on medications result in data set [2] (Case 7) is listed as “only modest improvement”.

As to `CNCC[C@H](Oc1cccc2ccccc12)c1cccs1` [duloxetine], in data set [3] (antidepressant switched from venlafaxine to duloxetine), the “helpfulness as judged by subject” value is listed as “did not believe the duloxetine was helpful”.

On to `OCCOCCN1CCN(C(c2ccccc2)c2ccc(Cl)cc2)CC1` (stereo not shown) [hydroxyzine], for which, in data set [2] (Case 7), the improvement on medications entry is “only modest improvement”.

As to `COC(=O)C(c1ccccc1)C1CCCCN1` (stereo not shown) [methylphenidate], the ADHD symptoms entry in data set [3] is listed as “neither of which were effective”. The “mood and anxiety symptoms” value in data set [3] (methylphenidate added to venlafaxine) was “marked improvement”; in data set [3] (methylphenidate as monotherapy, several weeks) it was “improved mood and anxiety symptoms”. In addition, the “mood, anxiety, and cognitive symptoms” value in data set [3] (short-acting methylphenidate 10 mg three times daily) is “additional improvements”.

Turning to `COc1cc2nc(N3CCN(C(=O)c4ccco4)CC3)nc(N)c2cc1OC` [prazosin], in data set [1] (Case 2, prazosin 5 mg at bedtime added, sertraline increased to 200 mg daily), the nightmares entry is recorded as “reduced but did not eliminate nightmares”.

In the case of `OCCOCCN1CCN(C2=Nc3ccccc3Sc3ccccc32)CC1` [quetiapine], the hallucinations entry in data set [1] (Case 2, trial of quetiapine) was “did not affect the hallucinations”. In data set [1], the signs or symptoms result is “None of these medications significantly reduced their signs or symptoms”. In data set [2] (Case 7), the improvement on medications entry was “only modest improvement”.

For `CN[C@H]1CC[C@@H](c2ccc(Cl)c(Cl)c2)c2ccccc21` [sertraline], in data set [1] (setting [4]), the “anxiety, depression, and psychosis” value is listed as “only a modest decrease”; the “intensity and frequency of nightmares” value is recorded as “unchanged”. Further, the “anxiety, nightmares, and psychosis” value in data set [1] (Case 2, sertraline 200 mg daily, bupropion 150 mg twice daily and prazosin 5 mg at bedtime, one year) was “only a mild impact”. For the same compound, the signs or symptoms entry in data set [1] was “None of these medications significantly reduced their signs or symptoms”. Further, in data set [1] (setting [5]), the hallucinations and paranoia entry is “improvements regarding hallucinations and paranoia”; the “sleep problems and nightmares” value is “persistent sleep problems and nightmares”. Further, the “response to medication changes” value in data set [1] (Case 5, sertraline increased to 200 mg per day with sodium divalproex and aripiprazole added, twelve months) was “only a modest response”. Further, the treatment results in data set [1] (Case 5, sertraline since release from military duty) is on record as “poor results”. Moreover, in data set [1] (Case 6, sertraline up to 200 mg per day, approximately one year), the “PTSD signs and symptoms” value is given as “only modest improvement”. For the same compound, the improvement on medications result in data set [2] (Case 7) is “only modest improvement”. Further, in data set [2] (setting [6]), the anxiety symptoms result is given as “responded well” and the irritability entry was “not improved”.

`CC1(C)O[C@@H]2[C@@H](CO[C@@]3(COS(N)(=O)=O)OC(C)(C)O[C@@H]23)O1` [topiramate]: in data set [2] (Case 7, recent addition of topiramate), the “frequency of combined visual-olfactory hallucinations” value was “did not reduce the frequency”.

`COc1cccc(C2(O)CCCCC2CN(C)C)c1` (stereo not shown) [tramadol]: the signs or symptoms entry in data set [1] was “None of these medications significantly reduced their signs or symptoms”.

As for `O=c1n(CCCN2CCN(c3cccc(Cl)c3)CC2)nc2ccccn12` [trazodone], the improvement on medications entry in data set [2] (Case 7) is reported as “only modest improvement”.

Consider `COc1ccc(C(CN(C)C)C2(O)CCCCC2)cc1` (stereo not shown) [venlafaxine], for which, in data set [1] (Case 2, sertraline switched to venlafaxine up to 300 mg daily, six months), the condition result is given as “did not significantly change their condition”. For the same compound, the adverse effect result in data set [2] (Case 8, Venlafaxine up to 150 mg daily) is listed as “developed akathisia”. In addition, the “mood and anxiety symptoms” value in data set [3] (venlafaxine sustained-release 225 mg per day with zolpidem 10 mg at bedtime) was “only modestly improved”.

Consider `Cc1ccc(-c2nc3ccc(C)cn3c2CC(=O)N(C)C)cc1` [zolpidem], for which, in data set [2] (Case 8, initial treatment with zolpidem), the nightmares result is listed as “did not improve the nightmares”.
